Active and inactive are the calls of the source.
Tests used:
[1] = target: T1, Carboxy-terminal domain RNA polymerase II polypeptide A small phosphatase 1 (Homo sapiens, UniProt Q9GZU7); assay: CTDSP1 inhibitors, concentration-response, biochemical, absorbance readout, ultra-high-throughput screen actives (AID 540297); format: functional
T1 sequence (Q9GZU7 whole entry): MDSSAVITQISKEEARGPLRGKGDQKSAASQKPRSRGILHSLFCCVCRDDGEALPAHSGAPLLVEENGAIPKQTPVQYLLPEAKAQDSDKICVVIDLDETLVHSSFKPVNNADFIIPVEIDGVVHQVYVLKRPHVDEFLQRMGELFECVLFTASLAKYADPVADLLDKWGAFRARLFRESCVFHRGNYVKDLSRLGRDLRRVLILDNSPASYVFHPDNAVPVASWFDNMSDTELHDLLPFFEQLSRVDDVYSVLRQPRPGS

[2] = target: Glucose-6-phosphate 1-dehydrogenase (Homo sapiens, UniProt P11413); assay: inhibition of Homo sapiens G6PD, dose series – biochemical, fluorescence, selectivity assay for P. falciparum G6PD inhibitor project, dose response (AID 504792); format: functional
Chain of Glucose-6-phosphate 1-dehydrogenase (P11413 whole entry): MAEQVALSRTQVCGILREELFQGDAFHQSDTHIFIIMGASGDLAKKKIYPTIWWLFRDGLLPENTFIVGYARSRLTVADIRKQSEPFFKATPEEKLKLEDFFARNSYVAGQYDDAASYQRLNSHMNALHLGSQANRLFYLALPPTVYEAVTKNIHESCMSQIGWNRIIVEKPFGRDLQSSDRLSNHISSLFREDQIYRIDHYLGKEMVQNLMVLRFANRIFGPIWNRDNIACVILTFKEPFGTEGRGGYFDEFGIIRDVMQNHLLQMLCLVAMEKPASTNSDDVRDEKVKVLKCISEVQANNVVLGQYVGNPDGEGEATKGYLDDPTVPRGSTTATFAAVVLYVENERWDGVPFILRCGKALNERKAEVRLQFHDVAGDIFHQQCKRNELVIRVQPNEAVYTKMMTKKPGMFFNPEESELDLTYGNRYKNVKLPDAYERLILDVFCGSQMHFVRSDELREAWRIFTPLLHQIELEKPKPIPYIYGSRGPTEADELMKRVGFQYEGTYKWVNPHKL

[3] = target: T2, Calpain-2 catalytic subunit (Sus scrofa, UniProt P43367); assay: m-calpain protease blockers, concentration series – biochemical, fluorogenic peptide substrate, dose response (AID 1420); format: functional
T2 sequence (P43367 whole entry): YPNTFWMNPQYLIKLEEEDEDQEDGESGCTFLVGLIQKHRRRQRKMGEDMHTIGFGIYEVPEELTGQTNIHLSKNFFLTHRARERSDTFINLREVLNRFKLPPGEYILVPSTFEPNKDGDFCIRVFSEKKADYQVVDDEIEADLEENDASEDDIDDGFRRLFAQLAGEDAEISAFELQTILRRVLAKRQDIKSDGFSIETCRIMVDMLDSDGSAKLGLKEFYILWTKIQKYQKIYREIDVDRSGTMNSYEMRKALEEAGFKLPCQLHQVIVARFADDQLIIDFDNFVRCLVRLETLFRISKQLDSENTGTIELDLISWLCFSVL

[4] = NIH-3T3 fibroblast cytotoxicity, dose response, cytotoxicity control, cell-based, fluorescence, Alamar Blue, secondary assay (AID 2327); format: functional;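 also: NIH-3T3 mouse fibroblasts cultured with fluconazole at 8 µg/mL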
[5] = fluconazole-exposed Candida albicans growth modulators – fluorescence, retest, confirmation (AID 2467); format: functional, cell-based
[6] = target: Large T antigen (Simian virus 40, UniProt P03070); format: functional, Betapolyomavirus macacae;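 also: Confirmatory-stage PubChem screen for compounds that inhibit SV40 T antigen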
Chain of Large T antigen (P03070 whole entry): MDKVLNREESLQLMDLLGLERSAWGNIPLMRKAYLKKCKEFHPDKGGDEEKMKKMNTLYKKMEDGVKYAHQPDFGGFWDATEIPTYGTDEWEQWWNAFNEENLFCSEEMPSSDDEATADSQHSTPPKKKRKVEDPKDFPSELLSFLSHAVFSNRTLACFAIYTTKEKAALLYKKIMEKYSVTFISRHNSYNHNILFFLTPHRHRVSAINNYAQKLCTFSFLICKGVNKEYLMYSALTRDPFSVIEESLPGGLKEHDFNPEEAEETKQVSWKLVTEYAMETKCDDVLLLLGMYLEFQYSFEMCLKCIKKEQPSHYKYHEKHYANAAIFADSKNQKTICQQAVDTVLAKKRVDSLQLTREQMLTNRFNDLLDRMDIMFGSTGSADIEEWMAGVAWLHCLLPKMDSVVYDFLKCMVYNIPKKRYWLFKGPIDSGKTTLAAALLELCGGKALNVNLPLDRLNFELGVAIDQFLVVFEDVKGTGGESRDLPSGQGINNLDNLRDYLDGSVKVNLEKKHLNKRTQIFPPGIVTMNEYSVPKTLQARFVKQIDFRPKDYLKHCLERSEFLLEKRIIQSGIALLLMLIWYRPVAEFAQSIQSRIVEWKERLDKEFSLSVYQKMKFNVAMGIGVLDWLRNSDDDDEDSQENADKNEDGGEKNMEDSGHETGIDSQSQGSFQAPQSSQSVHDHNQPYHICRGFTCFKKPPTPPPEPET

[7] = target: FAD-linked sulfhydryl oxidase ALR (Homo sapiens, UniProt P55789); assay: ALR-catalysed DTT oxidation blockers – biochemical, H2O2 detection, luminescence, cherry-pick, dose response (AID 493248)
Chain of FAD-linked sulfhydryl oxidase ALR (P55789 whole entry): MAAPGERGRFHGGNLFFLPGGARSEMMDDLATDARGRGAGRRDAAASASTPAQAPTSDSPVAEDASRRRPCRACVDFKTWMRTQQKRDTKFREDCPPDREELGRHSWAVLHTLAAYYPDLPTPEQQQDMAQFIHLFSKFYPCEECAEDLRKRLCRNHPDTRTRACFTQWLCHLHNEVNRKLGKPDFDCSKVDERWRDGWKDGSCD

[8] = cells; format: functional, cell-based
[9] = cells; format: functional, cell-based; remark: listed apart in the source
[10] = cells; format: functional
[11] = target: T3, Heat shock factor protein 1 (Mus musculus, UniProt P38532); assay: decrease of HSF1-responsive luciferase luminescence – cell-based, NIH3T3, dose retest, confirmation (AID 2382); format: functional;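 also: NIH3T3 fibroblasts with HSF1-driven luciferase reporter stressed by proteasome inhibitor MG132; luminescence from HSF1-driven luciferase expression after 8 hours of MG132 stress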
T3 sequence (P38532 whole entry): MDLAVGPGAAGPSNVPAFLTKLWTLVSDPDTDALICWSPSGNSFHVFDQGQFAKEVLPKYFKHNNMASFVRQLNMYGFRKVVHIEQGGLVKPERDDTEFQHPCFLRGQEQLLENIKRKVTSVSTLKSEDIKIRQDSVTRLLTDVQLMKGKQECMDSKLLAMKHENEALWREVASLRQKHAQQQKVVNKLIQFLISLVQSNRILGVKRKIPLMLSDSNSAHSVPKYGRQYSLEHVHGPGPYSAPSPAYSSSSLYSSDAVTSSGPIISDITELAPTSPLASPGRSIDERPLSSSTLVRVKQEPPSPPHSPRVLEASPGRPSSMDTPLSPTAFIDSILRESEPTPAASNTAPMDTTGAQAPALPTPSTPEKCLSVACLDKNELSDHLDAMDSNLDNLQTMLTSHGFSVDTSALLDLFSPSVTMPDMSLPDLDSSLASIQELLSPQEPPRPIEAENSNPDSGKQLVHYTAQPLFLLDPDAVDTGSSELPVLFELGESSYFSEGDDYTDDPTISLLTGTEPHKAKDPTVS

[12] = target: Cytochrome P450 2D6 (Homo sapiens, UniProt P10635);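 also: CYP2D6 member of a cytochrome P450 panel assay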
Chain of Cytochrome P450 2D6 (P10635 whole entry): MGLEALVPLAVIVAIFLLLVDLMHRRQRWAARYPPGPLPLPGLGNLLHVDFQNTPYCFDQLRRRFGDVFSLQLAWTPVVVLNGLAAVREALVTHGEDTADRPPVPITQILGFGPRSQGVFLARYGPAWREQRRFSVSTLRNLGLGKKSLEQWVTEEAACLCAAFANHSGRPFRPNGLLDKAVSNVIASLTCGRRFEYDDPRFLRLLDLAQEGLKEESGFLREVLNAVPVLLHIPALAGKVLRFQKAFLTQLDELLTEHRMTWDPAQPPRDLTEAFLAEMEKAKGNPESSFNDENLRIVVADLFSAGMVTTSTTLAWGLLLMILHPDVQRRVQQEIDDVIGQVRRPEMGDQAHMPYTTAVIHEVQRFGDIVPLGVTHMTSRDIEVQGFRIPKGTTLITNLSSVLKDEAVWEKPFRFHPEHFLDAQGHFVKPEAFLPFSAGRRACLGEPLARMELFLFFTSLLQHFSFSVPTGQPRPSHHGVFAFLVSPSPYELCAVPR

[13] = viability of uninfected HEp-2 cells – cell-based, HTS, cytotoxicity control for RSV inhibitor project, dose response (AID 2410); format: functional; settings: human respiratory syncytial virus
[14] = target: T4, Replicative DNA helicase DnaB (Mycobacterium tuberculosis, UniProt P9WMR3); assay: DnaB intein splicing inhibitors, dose response, biochemical, cell-free fluorescence (AID 449749); format: functional
T4 sequence (P9WMR3 whole entry): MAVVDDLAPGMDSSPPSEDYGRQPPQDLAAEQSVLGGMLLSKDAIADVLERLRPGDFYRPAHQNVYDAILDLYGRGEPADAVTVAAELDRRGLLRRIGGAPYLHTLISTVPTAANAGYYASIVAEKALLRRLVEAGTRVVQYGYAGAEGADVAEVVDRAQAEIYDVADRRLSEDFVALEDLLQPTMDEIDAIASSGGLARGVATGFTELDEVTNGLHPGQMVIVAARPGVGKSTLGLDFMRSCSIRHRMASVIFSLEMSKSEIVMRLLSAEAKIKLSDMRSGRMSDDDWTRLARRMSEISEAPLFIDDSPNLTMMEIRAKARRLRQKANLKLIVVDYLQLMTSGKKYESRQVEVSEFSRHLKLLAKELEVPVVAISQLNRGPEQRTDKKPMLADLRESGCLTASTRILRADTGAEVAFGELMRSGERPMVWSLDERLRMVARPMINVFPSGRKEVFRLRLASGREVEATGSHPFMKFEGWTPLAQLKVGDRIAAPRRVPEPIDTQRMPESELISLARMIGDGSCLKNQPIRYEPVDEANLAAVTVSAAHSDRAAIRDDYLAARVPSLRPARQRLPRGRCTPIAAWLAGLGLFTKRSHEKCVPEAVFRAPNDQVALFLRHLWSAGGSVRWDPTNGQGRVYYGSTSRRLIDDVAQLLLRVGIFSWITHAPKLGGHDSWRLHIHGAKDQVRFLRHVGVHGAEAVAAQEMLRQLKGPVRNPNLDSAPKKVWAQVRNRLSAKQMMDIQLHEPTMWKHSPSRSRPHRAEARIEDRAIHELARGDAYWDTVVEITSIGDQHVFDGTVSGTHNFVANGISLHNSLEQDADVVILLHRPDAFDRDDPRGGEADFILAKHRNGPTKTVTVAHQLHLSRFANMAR

[15] = target: T5, Protein RecA (Mycobacterium tuberculosis, UniProt P9WHJ3); assay: Fluorescence Cell-Free Homogeneous Dose Retest to Identify Inhibitors of RecA-Intein Splicing Activity. [Related pubchem assays (depositor defined):AID2097, AID2223, AID489010, AID492950]; format: functional
T5 sequence (P9WHJ3 whole entry): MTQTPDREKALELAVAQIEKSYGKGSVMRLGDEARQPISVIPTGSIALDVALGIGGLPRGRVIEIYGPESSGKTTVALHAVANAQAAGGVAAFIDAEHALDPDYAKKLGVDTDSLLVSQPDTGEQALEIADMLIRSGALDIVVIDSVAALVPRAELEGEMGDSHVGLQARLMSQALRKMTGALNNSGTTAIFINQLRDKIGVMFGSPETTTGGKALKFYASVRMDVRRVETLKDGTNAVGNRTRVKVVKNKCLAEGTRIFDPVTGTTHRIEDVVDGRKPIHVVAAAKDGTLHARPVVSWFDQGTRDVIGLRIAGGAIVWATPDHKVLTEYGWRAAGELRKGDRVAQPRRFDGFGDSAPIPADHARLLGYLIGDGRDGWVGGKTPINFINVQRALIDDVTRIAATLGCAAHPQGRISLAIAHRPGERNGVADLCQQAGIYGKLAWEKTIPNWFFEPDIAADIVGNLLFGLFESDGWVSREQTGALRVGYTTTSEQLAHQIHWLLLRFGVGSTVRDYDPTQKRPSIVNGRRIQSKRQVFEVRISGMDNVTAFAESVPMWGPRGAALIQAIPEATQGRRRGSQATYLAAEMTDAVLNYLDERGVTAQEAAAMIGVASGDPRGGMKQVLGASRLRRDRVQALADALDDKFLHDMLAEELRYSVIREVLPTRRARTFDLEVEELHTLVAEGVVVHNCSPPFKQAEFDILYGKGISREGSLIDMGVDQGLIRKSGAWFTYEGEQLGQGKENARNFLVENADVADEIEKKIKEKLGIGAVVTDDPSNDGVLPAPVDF

## Cc1oc2c(C)c3oc(=O)c(CC(=O)N[C@@H](CCCNC(N)=O)C(=O)O)c(C)c3cc2c1C
[1]
  IC50: 9.59 µM (active)

## CCn1c(N)c(C(=O)NC)sc1=S
[2]
  IC50: > 80 µM (inactive)

## CCn1c(SCc2ccc(F)cc2)nnc1C1CCN(S(=O)(=O)c2ccc(OC)cc2)CC1
[3]
  IC50: 26.2 µM (not active)

## CCn1c(=O)c(C(=O)NCc2cccnc2)c(O)c2ccccc21
[4]
  EC50: > 150 µM (inactive)
[5]
  EC50: > 38 µM (not active)

## COc1ccc(N2C(=O)CC(Sc3n[nH]c(-c4cccc(C)c4)n3)C2=O)cc1 (stereo unspecified)
[6]
  IC50: 76.5 µM (active)

## O=C(CNC(=O)c1ccccc1)NCC(=O)OCC(=O)c1ccc([N+](=O)[O-])cc1
[2]
  IC50: > 80 µM (inactive)

## COc1ccc(NC(=O)NC(C)c2ccccc2)cc1 (stereo unspecified)
[4]
  EC50: 73.5 µM (active)
[5]
  EC50: > 38 µM (not active)

## CCCc1cc(C(=O)Nc2sc3c(c2C#N)CCC3)no1
[4]
  EC50: > 150 µM (inactive)
[5]
  EC50: 1.02 µM (active)

## CCOc1cc(N2CCOCC2)c(OCC)cc1NC(=O)COC(=O)CCOc1ccc(C)cc1
[6]
  IC50: > 100 µM (active)

## COc1ccc2c(c1OC)C(=O)N1N=C(c3ccc(O)cc3)CC21 (stereo unspecified)
[4]
  EC50: > 150 µM (inactive)
[7]
  AC50: 1.11 µM (active)

## C[N+]1(CC(=O)OCCCc2ccccc2)CCCC1
[1]
  IC50: 6.36 µM (active)

## CCc1ccc(NC(=O)C[S+]([O-])CC(=O)Nc2ccc(F)cc2F)cc1 (stereo unspecified)
[1]
  IC50: 11.2 µM (active)

## CCC(C)c1ccccc1OCCn1ccnc1 (stereo unspecified)
[2]
  IC50: > 80 µM (inactive)

## Cc1cc(=O)oc2cc(OCC(=O)N3c4ccccc4NC(=O)C3(C)C)ccc12
[1]
  IC50: 8.21 µM (active)

## Cc1cc(C(=O)O)oc(=O)c1
[8]
  EC50: > 350 µM (not active)
[9]
  EC50: 58.9 µM (active)

## O=C(NN=C(Cc1ccccc1)Cc1ccccc1)c1ccncc1
[10]
  IC50: 0.17 µM (active)

## O=C(O)c1ccccc1C(=O)NC1=NN(c2ccccc2)CC1
[6]
  IC50: 14.2 µM (active)

## CCCCn1c(N)c(-c2nc3ccccc3o2)c2c([N+](=O)[O-])nn(C)c(=O)c21
[1]
  IC50: 4.75 µM (active)

## Cc1ccc(CSc2ccc3nnc(-c4cccnc4)n3n2)cc1
[3]
  IC50: 5.64 µM (active)

## COc1ccc(CNC(=O)C2CCN(S(=O)(=O)c3ccc(-c4nn[nH]n4)cc3)CC2)cc1
[3]
  IC50: 14.9 µM (not active)

## C=CCc1c(C)nc2c(-c3ccccc3)cnn2c1N1CCOCC1
[8]
  EC50: > 350 µM (not active)
[11]
  EC50: > 195 µM (not active)
[9]
  EC50: > 350 µM (not active)

## O=C(Nc1ccccc1N1CCOCC1)c1cc(F)cc(F)c1
[4]
  EC50: > 160 µM (inactive)
[5]
  EC50: 1.64 µM (active)

## COc1cccc(C2=CC(c3ccccc3)n3nnnc3N2)c1 (stereo unspecified)
[3]
  IC50: 2.32 µM (not active)
[12]
  AC50: 31.6 µM (inconclusive)

## COc1ccc2c(c1)-c1nc(NC(=O)c3ccco3)sc1CC2
[13]
  CC50: 18.4 µM (active)
[8]
  EC50: > 350 µM (not active)
[9]
  EC50: 23 µM (active)

## Cc1ccc(NC(=O)COC(=O)C2=COCCO2)c([N+](=O)[O-])c1
[10]
  IC50: 3.39 µM (active)

## CC(=O)Nc1ccc(S(=O)(=O)[N-]C2=C([n+]3ccn(-c4ccccn4)c3)C(=O)c3ccccc3C2=O)cc1
[8]
  EC50: > 350 µM (not active)
[9]
  EC50: > 350 µM (not active)

## CC(C)NC(=O)C1CCCN(S(C)(=O)=O)C1 (stereo unspecified)
[3]
  IC50: 7.4 µM (not active)

## Cc1ccc(OCC(=O)NNC(=O)C(C)Sc2ncnc3sc(C)c(C)c23)cc1 (stereo unspecified)
[3]
  IC50: 2.51 µM (not active)

## C=C(C)CNC(=S)N/N=C/c1c(F)cccc1F
[3]
  IC50: 20.3 µM (not active)

## COc1cccc(C(C[N+](=O)[O-])c2c(C)[nH]n(-c3ccccc3)c2=O)c1 (stereo unspecified)
[8]
  EC50: > 350 µM (not active)
[9]
  EC50: > 350 µM (not active)
[14]
  AC50: 16.5 µM (active)
[15]
  EC50: 2.25 µM (active)

## COc1cccc(-c2c(C(=O)N/N=C/c3ccc(C)o3)nnn2-c2nonc2N)c1
[2]
  IC50: > 80 µM (inactive)

— ChEMBL document CHEMBL1201862, “PubChem BioAssay data set” (2004)
